What all share (format): cell-based
One test concerns Serratia marcescens. Kind of test: MIC against Gram-negative bacteria: Serratia marcescens. The conditions noted are these: for MIC: S. marcescens. The essentials: (§1)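 LB broth cultures at McFarland 0.5, spun down, resuspended, diluted to 5×10^5 CFU/mL final. Two-fold serial dilutions of purified human EGF domain proteins, triplicate. 37° C, 175 rpm shaking. Endpoint: no visible growth.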

In another test the test system is Proteus mirabilis. Description: MIC against Gram-negative bacteria: Proteus mirabilis. As to conditions: for MIC: P. mirabilis. The essentials: as §1
The test system of the next test is Pseudomonas aeruginosa. Description: MIC against Gram-negative bacteria: Pseudomonas aeruginosa. As to conditions: for MIC: P. aeruginosa. The essentials: as §1
The test system of a further test is E. coli BL21. Description: MIC against Gram-negative bacteria: E. coli BL21. The essentials: as §1
For a further test, the system named is Klebsiella pneumonia. Description: MIC against Gram-negative bacteria: Klebsiella pneumonia. The conditions noted are these: for MIC: K. pneumonia. The essentials:
as §1

The next test relates to Moraxella catarrhalis. Kind of test: MIC against Gram-negative bacteria: Moraxella catarrhalis. As to conditions: for MIC: M. catarrhalis. The essentials: as §1
A further test deals with Citrobacter diversus. Kind of test: MIC against Gram-negative bacteria: Citrobacter diversus. As to conditions: for MIC: C. diversus. The essentials: as §1
The test system of a further test is Proteus vulgaris. Kind of test: MIC against Gram-negative bacteria: Proteus vulgaris. As to conditions: for MIC: P. vulgaris. The essentials:
as §1

In the next test the test system is Aeromonas hydrophila. Description: MIC against Gram-negative bacteria: Aeromonas hydrophila. The conditions noted are these: for MIC: A. hydrophila. The essentials: as §1
The next test relates to Enterobacter cloacae. Description: MIC against Gram-negative bacteria: Enterobacter cloacae. As to conditions: for MIC: E. cloacae. The essentials:
as §1

Another test deals with E. coli DH5α. Kind of test: Antibacterial activity: MIC and growth curve against E. coli DH5α in 96-well plate. The conditions noted are these: minimal inhibitory concentration against E. coli DH5α; 96-well plate, 5×10^5 CFU/mL, 37° C., judged after 8 h. The essentials: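 Log-phase DH5α (OD600 about 0.5, 37° C, 185 rpm in LB) was pelleted, resuspended in fresh LB and seeded at 5×10^5 CFU/mL with recombinant protein at 50, 25 and 12.5 μg/mL (two-fold series), in triplicate. Plates were shaken at 175 rpm, 37° C, and OD600 was read every 30 min. MIC was the lowest concentration with no growth.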

The mark [1] stands for this setting: 10 h cultivation at 37° C., 5×10^5 CFU/mL, two-fold serial dilution.
Setting [2] is: E. coli BL21, 10 h cultivation at 37° C.
The mark [3] stands for this setting: Serratia marcescens, 96-well plate, 5×10^5 CFU/mL, 37° C., 10 h.
The mark [4] stands for this setting: Proteus mirabilis, 96-well plate, 5×10^5 CFU/mL, 37° C., 10 h.
[5] abbreviates: Pseudomonas aeruginosa, 96-well plate, 5×10^5 CFU/mL, 37° C., 10 h.
Where [6] appears, read: E. coli BL21, 96-well plate, 5×10^5 CFU/mL, 37° C., 10 h.
The mark [7] stands for this setting: Klebsiella pneumonia, 96-well plate, 5×10^5 CFU/mL, 37° C., 10 h.
[8] abbreviates: Moraxella catarrhalis, 96-well plate, 5×10^5 CFU/mL, 37° C., 10 h.
Where [9] appears, read: Citrobacter diversus, 96-well plate, 5×10^5 CFU/mL, 37° C., 10 h.
Setting [10] is: Proteus vulgaris, 96-well plate, 5×10^5 CFU/mL, 37° C., 10 h.
Setting [11] is: Aeromonas hydrophila, 96-well plate, 5×10^5 CFU/mL, 37° C., 10 h.
The mark [12] stands for this setting: Enterobacter cloacae, 96-well plate, 5×10^5 CFU/mL, 37° C., 10 h.

As for “PRT1087 (HEEPCGPSHKSFCLNGGLCYVIPTIPSPFCRCVENYTGARCE; listed as Homo sapiens)”, the “MIC S. marcescens” value in the test on Serratia marcescens (setting [1]) was 25 µg/mL. In addition, the “MIC P. mirabilis” value in the test with Proteus mirabilis (setting [1]) came out at 25 µg/mL. Further, the “MIC P. aeruginosa” value in the test on Pseudomonas aeruginosa (setting [1]) was found to be 50 µg/mL. Moreover, in the test with E. coli BL21 (setting [1]), the “MIC E. coli BL21” value turned out to be 12.5 µg/mL. Also, the “MIC K. pneumonia” value against Klebsiella pneumonia (setting [1]) was 50 µg/mL. Also, the “MIC M. catarrhalis” value with Moraxella catarrhalis (setting [1]) came to 50 µg/mL. Moreover, the “MIC C. diversus” value in the test with Citrobacter diversus (setting [1]) was found to be 25 µg/mL. Also, the “MIC P. vulgaris” value with Proteus vulgaris (setting [1]) was found to be 25 µg/mL. The “MIC A. hydrophila” value in the test on Aeromonas hydrophila (setting [1]) amounted to 12.5 µg/mL. Further, the “MIC E. cloacae” value in the test on Enterobacter cloacae (setting [1]) worked out at 50 µg/mL. The MIC against E. coli DH5α was 50 µg/mL.
With “PRT999 (PEDNCTCHHGHCQRSSCVCDVGWTGPECE; listed as Homo sapiens)”, the MIC is 12.5 µg/mL against Serratia marcescens (10 h cultivation at 37° C.); 50 µg/mL in the test on Proteus mirabilis (10 h cultivation at 37° C.); 25 µg/mL against Pseudomonas aeruginosa (10 h cultivation at 37° C.); 50 µg/mL in the test on E. coli BL21 (setting [2]); 12.5 µg/mL against Klebsiella pneumonia (10 h cultivation at 37° C.); 25 µg/mL against Moraxella catarrhalis (10 h cultivation at 37° C.). For the same substance, the MIC amounted to 12.5 µg/mL in the test with Citrobacter diversus (10 h cultivation at 37° C.); 25 µg/mL in the test with Proteus vulgaris (10 h cultivation at 37° C.); 50 µg/mL against Aeromonas hydrophila (10 h cultivation at 37° C.); 25 µg/mL in the test on Enterobacter cloacae (10 h cultivation at 37° C.); 12.5 µg/mL in the test on E. coli DH5α.
Regarding “PRT1016 (RAGPCPPRGCSNGGTCQLMPEKDSTFHLCLCPPGFIGPDCE; listed as Homo sapiens)”, the MIC in the test with Serratia marcescens (10 h cultivation at 37° C.) came out at 12.5 µg/mL; against Proteus mirabilis (10 h cultivation at 37° C.), 50 µg/mL; in the test with Pseudomonas aeruginosa (10 h cultivation at 37° C.), 50 µg/mL; in the test with E. coli BL21 (setting [2]), 25 µg/mL; in the test on Klebsiella pneumonia (10 h cultivation at 37° C.) it was 25 µg/mL; with Moraxella catarrhalis (10 h cultivation at 37° C.), 100 µg/mL. Further, the minimal inhibitory concentration (MIC) came out at 50 µg/mL in the test with Citrobacter diversus (10 h cultivation at 37° C.); 25 µg/mL against Proteus vulgaris (10 h cultivation at 37° C.); 25 µg/mL against Aeromonas hydrophila (10 h cultivation at 37° C.); 12.5 µg/mL with Enterobacter cloacae (10 h cultivation at 37° C.); 12.5 µg/mL against E. coli DH5α.
For the substance “PRT1446 (FLSPCVDDCGPYGQCKLLRTHNYLYAACECKAGWRGWGCT; listed as Homo sapiens)”, the “MIC against S. marcescens” value in the test with Serratia marcescens (Serratia marcescens, 5×10^5 CFU/mL, 10 h cultivation at 37° C.) was determined as 12.5 µg/mL. Further, the “MIC against P. mirabilis” value against Proteus mirabilis (Proteus mirabilis, 5×10^5 CFU/mL, 10 h cultivation at 37° C.) worked out at 12.5 µg/mL. In the test with Pseudomonas aeruginosa (Pseudomonas aeruginosa, 5×10^5 CFU/mL, 10 h cultivation at 37° C.), the “MIC against P. aeruginosa” value is 25 µg/mL. Also, the “MIC against E. coli BL21” value against E. coli BL21 (E. coli BL21, 5×10^5 CFU/mL, 10 h cultivation at 37° C.) was found to be 12.5 µg/mL. Moreover, the “MIC against K. pneumonia” value with Klebsiella pneumonia (Klebsiella pneumonia, 5×10^5 CFU/mL, 10 h cultivation at 37° C.) stood at 25 µg/mL. For the same substance, the “MIC against M. catarrhalis” value in the test on Moraxella catarrhalis (Moraxella catarrhalis, 5×10^5 CFU/mL, 10 h cultivation at 37° C.) stood at 12.5 µg/mL. Also, the “MIC against C. diversus” value with Citrobacter diversus (Citrobacter diversus, 5×10^5 CFU/mL, 10 h cultivation at 37° C.) worked out at 12.5 µg/mL. Besides, the “MIC against P. vulgaris” value against Proteus vulgaris (Proteus vulgaris, 5×10^5 CFU/mL, 10 h cultivation at 37° C.) was 25 µg/mL. In the test with Aeromonas hydrophila (Aeromonas hydrophila, 5×10^5 CFU/mL, 10 h cultivation at 37° C.), the “MIC against A. hydrophila” value worked out at 25 µg/mL. Further, in the test with Enterobacter cloacae (Enterobacter cloacae, 5×10^5 CFU/mL, 10 h cultivation at 37° C.), the “MIC against E. cloacae” value is 12.5 µg/mL. The same substance came in with an MIC in the test on E. coli DH5α of 12.5 µg/mL.
On to “PRT1289 (LAEPCRGLQCLHGHCQASGTKGAHCVCDPGFSGELCE; listed as Homo sapiens)”, for which the “MIC against S. marcescens” value against Serratia marcescens (setting [3]) was determined as 25 µg/mL. Further, the “MIC against P. mirabilis” value against Proteus mirabilis (setting [4]) was 12.5 µg/mL. Further, the “MIC against P. aeruginosa” value in the test with Pseudomonas aeruginosa (setting [5]) was 12.5 µg/mL. The “MIC against E. coli BL21” value against E. coli BL21 (setting [6]) turned out to be 12.5 µg/mL. Besides, in the test on Klebsiella pneumonia (setting [7]), the “MIC against K. pneumonia” value turned out to be 12.5 µg/mL. In addition, in the test with Moraxella catarrhalis (setting [8]), the “MIC against M. catarrhalis” value was found to be 50 µg/mL. Besides, the “MIC against C. diversus” value against Citrobacter diversus (setting [9]) turned out to be 12.5 µg/mL. Further, the “MIC against P. vulgaris” value against Proteus vulgaris (setting [10]) was 50 µg/mL. The “MIC against A. hydrophila” value in the test with Aeromonas hydrophila (setting [11]) amounted to 12.5 µg/mL. Further, the “MIC against E. cloacae” value in the test with Enterobacter cloacae (setting [12]) was 25 µg/mL. Moreover, in the test with E. coli DH5α, the MIC is 12.5 µg/mL.
With “PRT120 (CRPCQNGGLATVEGTHCLCHCKPYTFGAACE; listed as Homo sapiens)”, the “MIC (μg/mL) S. marcescens” value in the test with Serratia marcescens (setting [3]) amounted to 12.5 µg/mL. Also, the “MIC (μg/mL) P. mirabilis” value in the test with Proteus mirabilis (setting [4]) worked out at 12.5 µg/mL. In the test on Pseudomonas aeruginosa (setting [5]), the “MIC (μg/mL) P. aeruginosa” value was found to be 12.5 µg/mL. The “MIC (μg/mL) E. coli BL21” value with E. coli BL21 (setting [6]) came to 12.5 µg/mL. In addition, the “MIC (μg/mL) K. pneumonia” value in the test on Klebsiella pneumonia (setting [7]) came to 12.5 µg/mL. Further, the “MIC (μg/mL) M. catarrhalis” value against Moraxella catarrhalis (setting [8]) came to 100 µg/mL. Further, the “MIC (μg/mL) C. diversus” value against Citrobacter diversus (setting [9]) came out at 12.5 µg/mL. For the same substance, the “MIC (μg/mL) P. vulgaris” value in the test with Proteus vulgaris (setting [10]) turned out to be 25 µg/mL. The “MIC (μg/mL) A. hydrophila” value against Aeromonas hydrophila (setting [11]) came out at 12.5 µg/mL. Also, the “MIC (μg/mL) E. cloacae” value against Enterobacter cloacae (setting [12]) was 12.5 µg/mL. In the test with E. coli DH5α, the minimal inhibitory concentration (MIC) turned out to be 12.5 µg/mL.

Usually MIC stands for the smallest concentration in the dilution series that meets the test's criterion for growth inhibition. Low readings indicate inhibition by little substance, high ones a need for much substance.

(Values after patent publication US9833497B2, “Human originated EGF domain proteins and use of the same” (CHENGDU SOURCEBIO LIMITED-LIABILITY COMPANY, priority 2013, dated 2017).)
